The supplement of paper PMC10307832

How the values were obtained:
Test in all cases: relative viability (nuclei count vs DMSO), 5 days (fraction); higher = more cells survive
KIN001-266 + AZD7762 = compound: CCN1CCC(CC1)N2C=C(N=N2)CNC3=CC4=C(C(=CN=C4C(=C3)Cl)C#N)NC5=CC(=C(C=C5)F)Cl [KIN001-266] + NC(=O)Nc1cc(-c2cccc(F)c2)sc1C(=O)N[C@H]1CCCNC1 [AZD7762] (partner 0.2 µM)
In short: (§1)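 One day after seeding in 1536-well plates, lung cancer cell lines were dosed by pin tool. Dosing was either single-drug or a fixed anchor-drug dose plus five library-drug doses (not always all listed) in √10 steps. After 5 days, nuclei were stained in one fix-and-stain step and counted on 4× images, and relative viability is the nuclei count of treated wells over that of vehicle wells, given as the median of duplicate plates.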

KIN001-266 + Palbociclib = compound: CCN1CCC(CC1)N2C=C(N=N2)CNC3=CC4=C(C(=CN=C4C(=C3)Cl)C#N)NC5=CC(=C(C=C5)F)Cl [KIN001-266] + CC(=O)c1c(C)c2cnc(Nc3ccc(N4CCNCC4)cn3)nc2n(C2CCCC2)c1=O [Palbociclib] (partner 0.5 µM)
In short: as §1

KIN001-266 + Crizotinib = compound: CCN1CCC(CC1)N2C=C(N=N2)CNC3=CC4=C(C(=CN=C4C(=C3)Cl)C#N)NC5=CC(=C(C=C5)F)Cl [KIN001-266] + C[C@@H](Oc1cc(-c2cnn(C3CCNCC3)c2)cnc1N)c1c(Cl)ccc(F)c1Cl [Crizotinib] (partner 1 µM)
In short: as §1

KIN001-266 + Vorinostat = compound: CCN1CCC(CC1)N2C=C(N=N2)CNC3=CC4=C(C(=CN=C4C(=C3)Cl)C#N)NC5=CC(=C(C=C5)F)Cl [KIN001-266] + O=C(CCCCCCC(=O)Nc1ccccc1)NO [Vorinostat] (partner 1 µM)
In short: as §1

Cell Line | relative viability (KIN001-266 + AZD7762; first compound 0.08 µM) | relative viability (KIN001-266 + AZD7762; first compound 0.253 µM) | relative viability (KIN001-266 + AZD7762; first compound 0.8 µM) | relative viability (KIN001-266 + AZD7762; first compound 2.53 µM) | relative viability (KIN001-266 + AZD7762; first compound 8 µM) | relative viability (KIN001-266 + Palbociclib; first compound 0.08 µM) | relative viability (KIN001-266 + Palbociclib; first compound 0.253 µM) | relative viability (KIN001-266 + Palbociclib; first compound 0.8 µM) | relative viability (KIN001-266 + Palbociclib; first compound 2.53 µM) | relative viability (KIN001-266 + Palbociclib; first compound 8 µM) | relative viability (KIN001-266 + Crizotinib; first compound 0.08 µM) | relative viability (KIN001-266 + Crizotinib; first compound 0.253 µM) | relative viability (KIN001-266 + Crizotinib; first compound 0.8 µM) | relative viability (KIN001-266 + Crizotinib; first compound 2.53 µM) | relative viability (KIN001-266 + Crizotinib; first compound 8 µM) | relative viability (KIN001-266 + Vorinostat; first compound 0.08 µM) | relative viability (KIN001-266 + Vorinostat; first compound 0.253 µM) | relative viability (KIN001-266 + Vorinostat; first compound 0.8 µM) | relative viability (KIN001-266 + Vorinostat; first compound 2.53 µM) | relative viability (KIN001-266 + Vorinostat; first compound 8 µM)
HCC-366 | 0.552 | 0.361 | 0.175 | 0.26 | 0.175 | 0.425 | 0.371 | 0.302 | 0.407 | 0.403 | 0.52 | 0.514 | 0.478 | 0.482 | 0.5 | 0.436 | 0.338 | 0.294 | 0.373 | 0.443
IA-LM |  |  |  |  |  |  |  |  |  |  | 0.885 | 0.748 | 0.693 | 0.753 | 0.585 | 0.932 | 0.966 | 0.971 |  | 1.01
NCI-H520 |  |  |  |  |  | 0.23 | 0.236 | 0.243 | 0.165 | 0.237 | 0.719 | 0.675 | 0.809 | 0.742 | 0.747 | 0.659 | 0.71 | 0.838 | 0.673 | 0.452
NCI-H522 | 0.951 | 0.85 | 0.786 | 0.822 | 0.79 | 1.04 | 1.07 | 0.952 | 0.95 | 0.804 |  |  |  |  |  | 0.936 | 0.887 | 0.876 | 0.979 | 0.943
NCI-H596 | 1.2 | 0.931 | 1.17 | 0.936 | 1.04 |  |  |  |  |  | 0.989 | 1.21 | 0.895 | 1.08 | 0.925 | 0.745 | 0.599 | 0.682 | 0.636 | 0.558
NCI-H661 |  |  |  |  |  | 0.424 | 0.413 | 0.403 | 0.372 | 0.349 | 1.1 | 0.959 |  |  | 0.887 | 0.776 | 0.765 | 0.781 | 0.771 | 0.78
NCI-H1299 |  |  |  |  |  |  |  |  |  |  | 0.946 | 0.921 | 0.941 | 0.87 | 0.817 |  |  |  |  | 
NCI-H1395 | 0.404 | 0.453 | 0.399 | 0.375 | 0.391 | 0.671 | 0.614 | 0.648 | 0.602 | 0.616 |  |  |  |  |  | 0.679 | 0.768 | 0.828 | 0.654 | 0.709
NCI-H1563 |  |  |  |  |  |  |  |  |  |  | 0.877 | 0.799 | 0.95 | 0.852 | 0.879 |  |  |  |  | 
NCI-H1648 | 0.721 | 0.713 | 0.518 | 0.572 | 0.669 | 0.298 | 0.277 | 0.277 | 0.281 | 0.261 |  |  |  |  |  | 0.438 | 0.502 | 0.515 | 0.453 | 0.422
NCI-H1650 |  |  |  |  |  | 0.407 | 0.362 | 0.377 | 0.267 | 0.196 | 1.14 | 0.911 | 1.11 | 0.817 | 0.61 | 0.566 | 0.622 | 0.668 | 0.488 | 0.337
NCI-H1703 |  |  |  |  | 0.112 |  |  |  |  |  | 0.965 | 0.675 | 0.63 | 0.457 | 0.371 |  |  |  |  | 
NCI-H1792 | 0.825 | 0.66 | 0.738 | 0.902 | 0.516 | 0.675 | 0.719 | 0.637 | 0.681 | 0.638 | 0.975 | 0.898 | 0.932 | 0.971 | 0.968 |  |  |  |  | 
NCI-H1793 | 0.482 | 0.541 |  | 0.276 | 0.376 | 0.316 | 0.358 |  | 0.354 | 0.307 |  |  |  |  |  | 0.887 | 0.738 |  | 0.723 | 0.555
NCI-H2009 |  |  |  |  |  | 0.203 | 0.257 | 0.253 | 0.208 | 0.203 | 1.05 | 1.05 | 0.984 | 0.928 | 0.901 | 0.724 | 0.736 | 0.676 | 0.653 | 0.516
NCI-H2023 |  |  |  |  |  | 0.333 | 0.383 | 0.388 | 0.289 | 0.288 | 0.732 | 0.603 | 0.576 | 0.648 | 0.459 | 0.676 | 0.871 | 0.675 | 0.636 | 0.539
NCI-H2228 |  |  |  |  |  | 0.836 | 0.797 | 0.936 | 0.763 | 0.664 | 0.583 | 0.435 | 0.565 | 0.493 | 0.471 | 0.631 | 0.645 | 0.722 | 0.509 | 0.422
NCI-H2342 | 0.559 | 0.492 | 0.451 | 0.431 | 0.545 | 0.52 | 0.518 | 0.471 | 0.597 | 0.575 |  |  |  |  |  | 0.693 | 0.867 | 0.876 | 0.776 | 1.16
SK-LU-1 |  |  |  |  |  | 0.393 | 0.381 | 0.421 | 0.373 | 0.339 | 1.13 | 0.997 | 0.963 | 0.763 | 0.557 | 0.833 | 0.799 | 0.783 | 0.776 | 0.518
SK-MES-1 |  |  |  |  |  | 0.331 | 0.352 | 0.28 | 0.336 | 0.316 | 1.02 | 1.09 | 0.948 | 0.923 | 0.888 | 1.1 | 1.19 | 1.03 | 1.03 | 0.713
SW 900 | 0.639 | 0.601 | 0.527 | 0.522 | 0.327 | 0.558 | 0.498 | 0.611 | 0.555 | 0.268 |  |  |  |  |  | 0.557 | 0.549 | 0.466 | 0.426 | 0.319
SW 1573 |  |  |  |  |  | 0.39 | 0.376 | 0.457 | 0.426 | 0.356 | 0.695 | 0.846 | 0.81 | 0.663 | 0.68 | 0.796 | 0.625 | 1.06 | 0.835 | 0.654
UMC-11 |  |  |  |  |  | 0.293 | 0.338 | 0.304 | 0.329 | 0.391 | 0.577 | 0.538 | 0.504 | 0.637 | 0.335 | 0.334 | 0.421 | 0.431 | 0.411 | 0.44
